According to patent US11072636B2, “Peptide for inhibiting angiogenesis and use thereof” (CAREGEN CO., LTD., priority 2017, dated 2021):

Experiments:
eNOS = assay: Expression level of vascular endothelial cell migration marker eNOS; type: cell-based; details: vascular endothelial cells; FIGS. 7 and 8
From the text: In addition, in order to confirm an effect of inhibiting the migration the vascular endothelial cells by the peptides of the present invention, in a specific exemplary embodiment of the present invention, a change in expression level of a vascular endothelial cell migration marker ‘eNOS’ was confirmed depending on treatment of the peptide having the amino acid sequence of SEQ ID NO: 1 or SEQ ID NO: 2 to the vascular endothelial cells.

ERK = assay: Inhibition of cell signaling pathway induced by VEGF: phosphorylation of ERK; type: cell-based; details: vascular endothelial cells; FIGS. 5 and 6
Experimental: (§1) Further, in order to confirm the effect of inhibiting a cell signaling pathway induced by the VEGFs by the peptides of the present invention, in a specific exemplary embodiment of the present invention, a peptide having an amino acid sequence of SEQ ID NO: 1 or SEQ ID NO: 2 was treated to vascular endothelial cells and then changes in phosphorylation of a VEGF receptor (VEGFR2), ERK, AKT and p38 induced by the VEGF were confirmed.

BAX protein = assay: Expression level of pro-apoptotic BAX protein; type: cell-based; details: vascular endothelial cells, expression reduced by the VEGF; FIGS. 9 and 10
HUVEC cells = assay: Inhibition of differentiation of vascular endothelial cells (tube formation assay); type: cell-based, human; details: VEGF 20 ng/ml, serum-free, 1 day, FIGS. 3 and 4
Experimental: In order to confirm the effect of inhibiting the differentiation of vascular endothelial cells, the two peptides prepared in Preparation Example 1 were treated to the vascular endothelial cells, respectively, and then a tube formation assay was performed.
Specifically, HUVEC cells were inoculated in a 96-well plate at a density of 1.5×10^3 cells/well and incubated overnight, and then the medium was replaced with serum-free media, and then a VEGF (20 ng/ml) and the peptide of the present invention were treated by concentration and incubated for 1 day. However, 2 μm of sunitinib was used as a positive control group. After the incubation was completed, the measurement of tube formation was visually observed using an optical microscope, and the number of nodules was measured together.

AKT = assay: Inhibition of cell signaling pathway induced by VEGF: phosphorylation of AKT; type: cell-based; details: vascular endothelial cells; FIGS. 5 and 6
Experimental: as §1

p38 = assay: Inhibition of cell signaling pathway induced by VEGF: phosphorylation of p38; type: cell-based; details: vascular endothelial cells; FIGS. 5 and 6
Experimental: as §1

VEGF receptor (VEGFR2) = assay: Inhibition of cell signaling pathway induced by VEGF: phosphorylation of VEGFR2; type: cell-based; details: vascular endothelial cells; FIGS. 5 and 6
Experimental: as §1

[1] = tested on: human umbilical vein endothelial cells (HUVEC); assay: Inhibition of proliferation of vascular endothelial cells (MTT analysis); type: cell-based; details: VEGF 20 ng/ml, 1% serum, 3 days, MTT absorbance 560 nm, FIGS. 1 and 2
Experimental: In order to confirm an effect of inhibiting the proliferation of vascular endothelial cells, the peptides prepared in Preparation Example 1 were treated to vascular endothelial cells, respectively, and then MTT analysis was performed.
Specifically, human umbilical vein endothelial cells (HUVEC) were inoculated in a 96-well plate at a density of 4×10^3 cells/well and then incubated overnight. Thereafter, after the medium was changed to a medium added with 1% serum, a VEGF (20 ng/ml) and the peptide of the present invention were treated for each concentration, respectively, and incubated for 3 days. However, 2 μm of sunitinib was used as a positive control group.
In addition, in order to confirm the effect of inhibiting the proliferation, 4 mg/ml of a thiozolyl blue tetrazolium bromide (MTT) solution was added to each well, formazan generated after reaction for 4 hours was dissolved by DMSO treatment, and then the absorbance was measured at a wavelength of 560 nm using a microplate reader. However, the measured absorbance values were shown by calculating relative rates based on an untreated control group.

VEGFR2 = VEGFR2 (Homo sapiens, UniProt P35968); assay: Competitive binding to the VEGF receptor; details: FIGS. 11 to 14
Sequence of VEGFR2 (P35968 20-1356, species assumed): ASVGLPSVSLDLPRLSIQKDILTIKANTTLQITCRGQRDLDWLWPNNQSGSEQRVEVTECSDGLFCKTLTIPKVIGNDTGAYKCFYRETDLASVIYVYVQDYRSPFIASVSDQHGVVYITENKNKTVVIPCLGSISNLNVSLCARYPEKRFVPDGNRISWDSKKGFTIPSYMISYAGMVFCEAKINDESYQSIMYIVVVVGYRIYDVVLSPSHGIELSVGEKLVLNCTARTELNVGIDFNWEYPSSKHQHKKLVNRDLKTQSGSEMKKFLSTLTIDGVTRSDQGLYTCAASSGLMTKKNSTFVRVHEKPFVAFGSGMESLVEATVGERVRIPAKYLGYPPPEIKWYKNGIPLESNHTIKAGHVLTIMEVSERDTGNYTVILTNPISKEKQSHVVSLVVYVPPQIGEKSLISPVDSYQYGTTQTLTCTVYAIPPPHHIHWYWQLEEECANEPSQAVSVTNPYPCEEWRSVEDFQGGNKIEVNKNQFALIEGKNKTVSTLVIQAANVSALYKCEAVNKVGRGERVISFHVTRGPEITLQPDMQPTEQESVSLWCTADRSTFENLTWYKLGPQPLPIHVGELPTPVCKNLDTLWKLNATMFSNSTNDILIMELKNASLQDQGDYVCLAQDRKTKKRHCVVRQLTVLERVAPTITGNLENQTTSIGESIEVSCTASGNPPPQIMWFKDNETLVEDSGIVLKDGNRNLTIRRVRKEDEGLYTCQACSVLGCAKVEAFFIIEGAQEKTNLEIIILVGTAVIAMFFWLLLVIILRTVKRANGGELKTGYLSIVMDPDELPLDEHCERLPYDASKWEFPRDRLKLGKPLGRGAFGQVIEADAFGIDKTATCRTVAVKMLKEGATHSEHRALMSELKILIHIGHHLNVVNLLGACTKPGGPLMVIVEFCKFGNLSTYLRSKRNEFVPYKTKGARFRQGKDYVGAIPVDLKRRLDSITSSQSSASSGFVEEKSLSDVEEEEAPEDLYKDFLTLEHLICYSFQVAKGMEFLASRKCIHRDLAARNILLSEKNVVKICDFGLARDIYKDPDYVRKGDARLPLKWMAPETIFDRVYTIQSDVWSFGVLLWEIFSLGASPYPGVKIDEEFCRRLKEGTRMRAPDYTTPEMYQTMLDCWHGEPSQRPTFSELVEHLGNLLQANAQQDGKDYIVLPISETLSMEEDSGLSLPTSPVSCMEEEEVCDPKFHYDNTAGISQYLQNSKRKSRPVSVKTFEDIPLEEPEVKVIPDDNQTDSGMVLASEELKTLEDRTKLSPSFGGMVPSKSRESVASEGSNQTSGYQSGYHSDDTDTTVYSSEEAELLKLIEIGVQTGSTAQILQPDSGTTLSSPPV

Row | Sequence | eNOS expression increased by VEGF treatment (eNOS) | phosphorylation of ERK induced by the VEGF (ERK) | expression of the BAX protein (BAX protein) | differentiation (tube formation) of vascular endothelial cells (HUVEC cells) | phosphorylation of AKT induced by the VEGF (AKT) | phosphorylation of p38 induced by the VEGF (p38) | phosphorylation of VEGFR2 induced by the VEGF (VEGF receptor (VEGFR2)) | proliferation of vascular endothelial cells increased by the VEGF [1] | binding to the VEGF receptor in competition with the VEGF (VEGFR2)
1 | IHGTYKELL (Peptide 2) [SEQ ID NO: 2] | decrease concentration-dependently | significantly inhibited | increased concentration-dependently | reduced | significantly inhibited | significantly inhibited | significantly inhibited | reduced | bind to a VEGFR2 competitively with the VEGF
2 | NKNFGYDLYR (Peptide 1) [SEQ ID NO: 1] | decrease concentration-dependently | significantly inhibited | increased concentration-dependently | reduced | significantly inhibited | significantly inhibited | significantly inhibited | reduced | bind to a VEGFR2 competitively with the VEGF
